Source: article PMC9990178 (Cell Chemical Biology, 2023)

How the values were obtained:
[1] = test system: pulmonary fibrosis induced by N protein of the Omicron variant; format: in vivo; conditions: mice, AAV encoding Omicron N protein
[2] = test system: Smad3 phosphorylation, α-SMA, COL1A1; format: cell-based, mouse; conditions: Alpha, Beta, Gamma, Delta, Omicron N protein; 20 μM, 36 h

O=c1c(O)c(N2CCN(Cc3ccc(Br)cc3F)CC2)oc2ccccc12 [RMY-205, 2-(4-(4-bromo-2-fluorobenzyl)piperazin-1-yl)-3-hydroxy-4H-chromen-4-one]
pro-fibrotic effects of N protein of the Omicron variant [1]: effectively suppressed | Smad3 phosphorylation induced by N protein variants [2]: abolished | α-SMA and COL1A1 expression induced by N protein variants [2]: suppression
